Assay results from ChEMBL document CHEMBL1151535, “Oxiranes with quinoline substitution : Stereoselective synthesis and antiviral activity” (1996).

What was measured:
Format in all cases: functional
[1] = test system: Encephalomyocarditis virus; assay: In vitro antiviral activity against Encephalomyocarditis virus(EMCV) […], at the concentration 1000-1 ug/ml.
Mus musculus = assay: In vivo antiviral activity against Encephalomyocarditis virus(EMCV) in mice, at the concentration 0.25 mg/mouse
[2] = test system: Encephalomyocarditis virus; assay: In vitro antiviral activity against Encephalomyocarditis virus(EMCV) […], at the concentration 7.8 ug/ml.
[3] = test system: Encephalomyocarditis virus; assay: In vitro antiviral activity against Encephalomyocarditis virus(EMCV) […], at the concentration 15.6 ug/ml.

SMILES | Protection [1] [%] | Protection (Mus musculus) [%] | other results
Cc1cc(NNC(=O)CCl)nc2ccccc12 | 0 |  | 
Cc1cc(NNC(=O)[C@@H]2O[C@H]2c2cccc([N+](=O)[O-])c2)nc2ccccc12 | 0 |  | 
Cc1cc(NNC(=O)[C@@H]2O[C@H]2c2ccc3c(c2)OCO3)nc2ccccc12 |  | 10 | Protection [2]: 75%
COc1ccc([C@@H]2O[C@H]2C(=O)NNc2cc(C)c3ccccc3n2)cc1 |  | 25 | Protection [3]: 75%
Cc1cc(NNC(=O)[C@@H]2O[C@H]2c2ccncc2)nc2ccccc12 | 0 |  | 
Cc1cc(NNC(=O)[C@@H]2O[C@H]2c2ccc(Cl)cc2)nc2ccccc12 | 0 |  | 
